Read-outs that look alike come from different tables or passages of the source.

The assay has as its system RS4;11 cells. As to the kind of experiment: Cell viability assay (CellTiter-Glo) in RS4;11 cells. In kind it is cell-based. The conditions noted are these: Homo sapiens, 72 h. An outline of the steps: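 Three-day compound treatment of RS4;11 ALL cells (5000/well, 3-fold dilution series of 8 or 12 points), with IC50 from a nonlinear least-squares fit to CellTiter-Glo viability data.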

Where [1] appears, read: RS4;11 cells, cell viability, 3 days, CellTiter-Glo, read-out: IC50.
Setting [2] is: RS4;11 ALL cells treated for three days, read-out: cell viability inhibition IC50.

As to `CS(=O)(=O)c1ccc(-c2cccc3nc(Nc4ccc(N5CCN(C(=O)CCCCCNc6cccc7c6C(=O)N(C6CCC(=O)NC6=O)C7=O)CC5)cc4)nn23)cc1` (stereo not shown) [JA-013, 2-(2,6-Dioxo-piperidin-3-yl)-4-[6-(4-{4-[5-(4-methanesulfonyl-phenyl)-[1,2,4]triazolo[1,5-a]pyridin-2-ylamino]-phenyl}-piperazin-1-yl)-6-oxo-hexylamino]-isoindole-1,3-dione], the IC50 – broadly, the concentration at which inhibition is half-maximal – under setting [1] is above 10000 nM.

As for `O=C1CCC(N2C(=O)c3cccc(NCCCCCC(=O)N4CCC(n5cc(-c6cnc7cccc(-c8cc(F)c(CN9CCOCC9)c(F)c8)c7n6)cn5)CC4)c3C2=O)C(=O)N1` (stereo not shown) [JA-001, 4-[[6-[4-[4-[8-[3,5-Difluoro-4-(morpholinomethyl)phenyl]quinoxalin-2-yl]pyrazol-1-yl]-1-piperidyl]-6-oxo-hexyl]amino]-2-(2,6-dioxo-3-piperidyl)isoindoline-1,3-dione], the IC50 under setting [1] came out at 3170 nM. On the same count and under the same terms, next, `CS(=O)(=O)c1ccc(-c2cccc3nc(Nc4ccc(N5CCN(C(=O)CCCCCNc6ccc7c(c6)CN(C6CCC(=O)NC6=O)C7=O)CC5)cc4)nn23)cc1` (stereo not shown) [JA-275, 3-(5-((6-(4-(4-((5-(4-(Methylsulfonyl)phenyl)-[1,2,4]triazolo[1,5-a]pyridin-2-yl)amino)phenyl)piperazin-1-yl)-6-oxohexyl)amino)-1-oxoisoindolin-2-yl)piperidine-2,6-dione]: 176 nM. For `CS(=O)(=O)c1ccc(-c2cccc3nc(Nc4ccc(N5CCN(C(=O)CCCCNc6ccc7c(c6)C(=O)N(C6CCC(=O)NC6=O)C7=O)CC5)cc4)nn23)cc1` (stereo not shown) [JA-196, 2-(2,6-dioxopiperidin-3-yl)-5-((5-(4-(4-((5-(4-(methylsulfonyl)phenyl)-[1,2,4]triazolo[1,5-a]pyridin-2-yl)amino)phenyl)piperazin-1-yl)-5-oxopentyl)amino)isoindoline-1,3-dione], the concentration for half-maximal inhibition (IC50) runs as follows: under setting [2], below 100 nM; under setting [1], 107 nM. Turning to `Cc1ncsc1-c1ccc(CNC(=O)[C@@H]2C[C@@H](O)CN2C(=O)[C@@H](NC(=O)CCC(=O)N2CCN(c3ccc(Nc4nc5cccc(-c6ccc(S(C)(=O)=O)cc6)n5n4)cc3)CC2)C(C)(C)C)cc1` [JA-069, (2S,4R)-1-((S)-3,3-Dimethyl-2-(4-(4-(4-((5-(4-(methylsulfonyl)phenyl)-[1,2,4]triazolo[1,5-a]pyridin-2-yl)amino)phenyl)piperazin-1-yl)-4-oxobutanamido)butanoyl)-4-hydroxy-N-(4-(4-methylthiazol-5-yl)benzyl)pyrrolidine-2-carboxamide], the IC50 under setting [1] is above 10000 nM. Regarding `Cc1ncsc1-c1ccc(CNC(=O)[C@@H]2C[C@@H](O)CN2C(=O)[C@@H](NC(=O)CCCCCCCCCC(=O)N2CCN(c3ccc(Nc4nc5cccc(-c6ccc(S(C)(=O)=O)cc6)n5n4)cc3)CC2)C(C)(C)C)cc1` [JA-081, 4-Hydroxy-1-{2-[11-(4-{4-[5-(4-methanesulfonyl-phenyl)-[1,2,4]triazolo[1,5-a]pyridin-2-ylamino]-phenyl}-piperazin-1-yl)-11-oxo-undecanoylamino]-3,3-dimethyl-butyryl}-pyrrolidine-2-carboxylic acid 4-(4-methyl-thiazol-5-yl)-benzylamide], under setting [1], the IC50 is above 10000 nM.

Take `Cc1ncsc1-c1ccc(CNC(=O)[C@@H]2C[C@@H](O)CN2C(=O)[C@@H](NC(=O)CCCCCCCC(=O)N2CCN(c3ccc(Nc4nc5cccc(-c6ccc(S(C)(=O)=O)cc6)n5n4)cc3)CC2)C(C)(C)C)cc1` [JA-065, (2S,4R)-1-((S)-3,3-Dimethyl-2-(9-(4-(4-((5-(4-(methylsulfonyl)phenyl)-[1,2,4]triazolo[1,5-a]pyridin-2-yl)amino)phenyl)piperazin-1-yl)-9-oxononanamido)butanoyl)-4-hydroxy-N-(4-(4-methylthiazol-5-yl)benzyl)pyrrolidine-2-carboxamide]: the IC50 under setting [1] worked out at 872 nM. As to `O=C1CCC(N2C(=O)c3cccc(NCCOCCOCCC(=O)N4CCC(n5cc(-c6cnc7cccc(-c8cc(F)c(CN9CCOCC9)c(F)c8)c7n6)cn5)CC4)c3C2=O)C(=O)N1` (stereo not shown) [JA-039, 4-[2-[2-[3-[4-[4-[8-[3,5-Difluoro-4-(morpholinomethyl)phenyl]quinoxalin-2-yl]pyrazol-1-yl]-1-piperidyl]-3-oxo-propoxy]ethoxy]ethylamino]-2-(2,6-dioxo-3-piperidyl)isoindoline-1,3-dione], the IC50 under setting [1] was above 10000 nM. As for `CS(=O)(=O)c1ccc(-c2cccc3nc(Nc4ccc(N5CCN(CCCCCCOc6ccc7c(c6)C(=O)N(C6CCC(=O)NC6=O)C7=O)CC5)cc4)nn23)cc1` (stereo not shown) [JA-256, 2-(2,6-Dioxopiperidin-3-yl)-5-((6-(4-(4-((5-(4-(methylsulfonyl)phenyl)-[1,2,4]triazolo[1,5-a]pyridin-2-yl)amino)phenyl)piperazin-1-yl)hexyl)oxy)isoindoline-1,3-dione], the IC50 under setting [1] turned out to be 1900 nM.

`CS(=O)(=O)c1ccc(-c2cccc3nc(Nc4ccc(N5CCN(CC(=O)NCCCCCCCCNc6cccc7c6C(=O)N(C6CCC(=O)NC6=O)C7=O)CC5)cc4)nn23)cc1` (stereo not shown) [JA-118, N-(8-((2-(2,6-Dioxopiperidin-3-yl)-1,3-dioxoisoindolin-4-yl)amino)octyl)-2-(4-(4-((5-(4-(methylsulfonyl)phenyl)-[1,2,4]triazolo[1,5-a]pyridin-2-yl)amino)phenyl)piperazin-1-yl)acetamide]: the IC50 under setting [1] was above 10000 nM. Same read-out and setting: next, `Cn1c(=O)n(C2CCC(=O)NC2=O)c2ccc(NCCCCCCC(=O)N3CCC(n4cc(-c5cnc6cccc(-c7cc(F)c(CN8CCOCC8)c(F)c7)c6n5)cn4)CC3)cc21` (stereo not shown) [JA-289, 3-(5-((7-(4-(4-(8-(3,5-Difluoro-4-(morpholinomethyl)phenyl)quinoxalin-2-yl)-1H-pyrazol-1-yl)piperidin-1-yl)-7-oxoheptyl)amino)-3-methyl-2-oxo-2,3-dihydro-1H-benzo[d]imidazol-1-yl)piperidine-2,6-dione]: above 500 nM; `CS(=O)(=O)c1ccc(-c2cccc3nc(Nc4ccc(N5CCN(C(=O)CCCCCCc6ccc7c(c6)CN(C6CCC(=O)NC6=O)C7=O)CC5)cc4)nn23)cc1` (stereo not shown) [JA-251, 3-(5-(7-(4-(4-((5-(4-(Methylsulfonyl)phenyl)-[1,2,4]triazolo[1,5-a]pyridin-2-yl)amino)phenyl)piperazin-1-yl)-7-oxoheptyl)-1-oxoisoindolin-2-yl)piperidine-2,6-dione]: 337 nM. For the compound `O=C(CN1CCC(n2cc(-c3cnc4cccc(-c5cc(F)c(CN6CCOCC6)c(F)c5)c4n3)cn2)CC1)NCCCCCCCNc1ccc2c(c1)C(=O)N(C1CCC(=O)NC1=O)C2=O` (stereo not shown) [JA-179, 2-(4-(4-(8-(3,5-difluoro-4-(morpholinomethyl)phenyl)quinoxalin-2-yl)-1H-pyrazol-1-yl)piperidin-1-yl)-N-(7-((2-(2,6-dioxopiperidin-3-yl)-1,3-dioxoisoindolin-5-yl)amino)heptyl)acetamide], the IC50 under setting [2] was below 100 nM and the 50% inhibitory concentration (IC50) under setting [1] came to 78.3 nM. Consider `Cc1ncsc1-c1ccc(CNC(=O)[C@@H]2C[C@@H](O)CN2C(=O)[C@@H](NC(=O)CCOCCOCCOCCOCCOCCNC(=O)CN2CCN(c3ccc(Nc4nc5cccc(-c6ccc(S(C)(=O)=O)cc6)n5n4)cc3)CC2)C(C)(C)C)cc1` [JA-138, (2S,4R)-1-((S)-23-(tert-Butyl)-1-(4-(4-((5-(4-(methylsulfonyl)phenyl)-[1,2,4]triazolo[1,5-a]pyridin-2-yl)amino)phenyl)piperazin-1-yl)-2,21-dioxo-6,9,12,15,18-pentaoxa-3,22-diazatetracosan-24-oyl)-4-hydroxy-N-(4-(4-methylthiazol-5-yl)benzyl)pyrrolidine-2-carboxamide], for which the IC50 under setting [1] is above 10000 nM. Turning to `Cc1cnc(Nc2ccc(N3CCN(CC(=O)NCCCCCCNc4cccc5c4C(=O)N(C4CCC(=O)NC4=O)C5=O)CC3)cc2)nc1Nc1cccc(S(=O)(=O)NC(C)(C)C)c1` (stereo not shown) [JA-094, 2-(4-(4-((4-((3-(N-(tert-butyl)sulfamoyl)phenyl)amino)-5-methylpyrimidin-2-yl)amino)phenyl)piperazin-1-yl)-N-(6-((2-(2,6-dioxopiperidin-3-yl)-1,3-dioxoisoindolin-4-yl)amino)hexyl)acetamide], the IC50 reads like this: under setting [2], below 100 nM; under setting [1], 74.4 nM. For the compound `CS(=O)(=O)c1ccc(-c2cccc3nc(Nc4ccc(N5CCN(C(=O)CCCNc6cccc7c6C(=O)N(C6CCC(=O)NC6=O)C7=O)CC5)cc4)nn23)cc1` (stereo not shown) [JA-010, 2-(2,6-Dioxopiperidin-3-yl)-4-((4-(4-(4-((5-(4-(methylsulfonyl)phenyl)-[1,2,4]triazolo[1,5-a]pyridin-2-yl)amino)phenyl)piperazin-1-yl)-4-oxobutyl)amino)isoindoline-1,3-dione], the IC50 under setting [1] was above 10000 nM. Consider `Cc1cnc(Nc2ccc(N3CCN(CC(=O)NCCCCCNc4cccc5c4C(=O)N(C4CCC(=O)NC4=O)C5=O)CC3)cc2)nc1Nc1cccc(S(=O)(=O)NC(C)(C)C)c1` (stereo not shown) [JA-093, 2-(4-(4-((4-((3-(N-(tert-butyl)sulfamoyl)phenyl)amino)-5-methylpyrimidin-2-yl)amino)phenyl)piperazin-1-yl)-N-(5-((2-(2,6-dioxopiperidin-3-yl)-1,3-dioxoisoindolin-4-yl)amino)pentyl)acetamide], for which the IC50 reads like this: under setting [2], below 100 nM; under setting [1], 73.3 nM. As for `Cc1ncsc1-c1ccc(CNC(=O)[C@@H]2C[C@@H](O)CN2C(=O)[C@@H](NC(=O)CCCCCCCC(=O)N2CCC(n3cc(-c4cnc5cccc(-c6cc(F)c(CN7CCOCC7)c(F)c6)c5n4)cn3)CC2)C(C)(C)C)cc1` [JA-051, (2S,4R)-1-[(2S)-2-[[9-[4-[4-[8-[3,5-Difluoro-4-(morpholinomethyl)phenyl]quinoxalin-2-yl]pyrazol-1-yl]-1-piperidyl]-9-oxo-nonanoyl]amino]-3,3-dimethyl-butanoyl]-4-hydroxy-N-[[4-(4-methylthiazol-5-yl)phenyl]methyl]pyrrolidine-2-carboxamide], the IC50 under setting [1] was 4640 nM.
